Measurements: patent US20230382889A1 (Volastra Therapeutics, Inc., priority 2022, published 2023)

Columns and labels:
JIMT-1 cells = test: Cell viability of KIF18a-sensitive cell lines, JIMT-1 (Cell Titre-Glo, 7 days); type: cell-based; conditions: Homo sapiens, 168 h; JIMT-1, 7 days; read-out: JIMT-1 IC50
Experimental: (§1) Cell lines were seeded as follows 24 hours before compound treatment: HCC15 (Korean Cell Line Bank) 600 cell/well, 95 μL of RPMI-1640 media supplemented with 100 units/mL penicillin, 100 units/mL streptomycin and 10% FBS; NIH:OVCAR-3 (ATCC), 1000 cell/well, 95 μL of RPMI-1640 media supplemented with 100 units/mL penicillin, 100 units/mL streptomycin, 0.01 mg/mL bovine insulin, and 20% FBS; JIMT-1 (Addexbio) 1000 cell/well, 95 μL of DMEM media supplemented with 100 units/mL penicillin, 100 units/mL streptomycin, and 10% FBS.
(§2) Test compounds were added to cells in a 20× dilution scheme by adding 5 μL of serially diluted compound to the plate, and the treated cells were incubated for an additional 7 days in a 37° C., 5% CO2 incubator. DMSO was used as the negative control (0% effect), and wells omitting cells were used as the positive control (100% effect). The cells were incubated for seven days, and cell viability determined via the Promega Cell Titre-Glo® Assay kit. Luminescence units were converted to ATP concentrations via an ATP standard curve (10 point, 2-fold dilution from 5 uM). % Inhibition was calculated for each well as: ([max−min]−[test−min])/[max−min]. IC50 values were calculated from concentration vs. % Inhibition data via a four-parameter variable slope model.

NIH:OVCAR-3 cells = test: Cell viability of KIF18a-sensitive cell lines, NIH:OVCAR-3 (Cell Titre-Glo, 7 days); type: cell-based; conditions: Homo sapiens, OVCAR-3, 168 h; NIH:OVCAR3, 7 days; read-out: NIH:OVCAR3 IC50
Experimental: as §1, §2

hKIF18A (1-374) = hKIF18A (1-374) (Homo sapiens (Human), UniProt Q8NI77); test: Inhibition of KIF18A microtubule-dependent ATPase activity (ADP-Glo); type: biochemical; conditions: 4 nM hKIF18A (1-374)
How it was run: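 Reaction was started with pre-formed microtubules and ATP (0.2 mg/mL and 2.0 mM in the added mix) and run 60 min at 28 °C. ADP was read by ADP-Glo luminescence, and IC50 came from a four-parameter fit of % inhibition.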

HCC15 cells = test: Cell viability of KIF18a-sensitive cell lines, HCC15 (Cell Titre-Glo, 7 days); type: cell-based; conditions: 168 h; HCC15, 7 days; read-out: HCC15 IC50
Experimental: as §1, §2

[1] = molecular target: KIF18a-microtubule complex (Homo sapiens (Human), UniProt Q8NI77); test: Binding kinetics to KIF18a-microtubule complex (global progress curve analysis); conditions: for kon (on-rate from binding kinetics assay) / koff: KIF18A 0.25 nM, up to 24 hr; for koff: read-out: koff (off-rate from binding kinetics assay) (converted); for Ki: koff/kon, read-out: KI (determined from binding kinetic assay koff/kon)
Experimental: Compound binding kinetics parameters (kon and koff) were determined by the method of global progress curve analysis (GPCA). […] ADP product levels were determined by the Promega® ADP-Glo assay.

OVCAR-3 tumor cells = test: In vivo activity, OVCAR-3 xenograft tumor growth inhibition; conditions: OVCAR3 model, Balb/C nude mice, FIG. 1
Experimental: (§3) OVCAR-3 (ATCC) tumor cells were maintained in vitro in RPMI-1640 medium supplemented with 20% fetal bovine serum, 0.01 mg/mL bovine insulin and 1% Anti-Anti at 37° C. in an atmosphere of 5%/CO2 in air. HCC15 (DSMZ) tumor cells were maintained in vitro in RPMI 1640 medium supplemented with 10% fetal bovine serum and 1% Anti-Anti at 37° C. in an atmosphere of 5% CO2 in air.
(§4) The tumor cells were sub-cultured twice weekly. The cells growing in an exponential growth phase were harvested and counted for tumor inoculation.
(§5) Tumor cells (10×106) in 0.2 mL of PBS mixed with Matrigel (50:50) were inoculated subcutaneously on the right flank of each mouse. When the average tumor volume reached 110-175 mm^3, animals were randomized into groups of 10 and treatment started. OVCAR-3 cells were implanted in Balb/C nude mice, and HCC15 cell were implanted in SCID Beige mice.
(§6) Compounds were dosed once or twice a day (12 h) orally. Tumor Growth Inhibition (TGI) was calculated using the formula: TGI (%)=[1−(TN−T0)/(VN−V0)]×100; TN is the average tumor volume of a treatment group at the indicated timepoint, T0 is the average tumor volume of the treatment group on treatment day 0, VN is the average tumor volume of the vehicle control group at the indicated timepoint, and V0 is the average tumor volume of the vehicle group on treatment day 0. P value was calculated based on tumor size by One-Way ANOVA with GraphPad Prism 9.4.0 compared with the vehicle group, respectively. **** indicates p<0.0001.
(§7) The tumor volume of vehicle- and compound-treated mice as a function of time after start of treatment and the results of treatments with selected compounds on SCID Beige mice or nude mice implanted with HCC15 or OVCAR-3 are shown in FIGS. 1 and 2. The TGI calculated for treatments with selected compounds are shown in Table 11.

HCC15 tumor cells = test: In vivo activity, HCC15 xenograft tumor growth inhibition; conditions: HCC15 model, SCID Beige mice, FIG. 2
Experimental: as §3, §4, §5, §6, §7

Chain of KIF18a-microtubule complex (Q8NI77 1-374, one chain of several): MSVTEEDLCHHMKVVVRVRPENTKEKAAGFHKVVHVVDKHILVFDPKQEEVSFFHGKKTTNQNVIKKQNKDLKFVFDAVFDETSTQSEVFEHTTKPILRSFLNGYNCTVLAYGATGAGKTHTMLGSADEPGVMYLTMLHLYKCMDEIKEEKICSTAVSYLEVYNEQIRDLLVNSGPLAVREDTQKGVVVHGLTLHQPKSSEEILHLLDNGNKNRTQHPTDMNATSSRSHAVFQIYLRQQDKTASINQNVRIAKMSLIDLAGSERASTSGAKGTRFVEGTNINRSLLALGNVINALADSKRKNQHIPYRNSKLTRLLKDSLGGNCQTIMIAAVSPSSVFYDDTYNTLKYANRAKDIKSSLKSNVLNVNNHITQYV
Chain of hKIF18A (1-374) (Q8NI77 1-374): as the sequence (Q8NI77 1-374, one chain of several) above

SMILES	IC50 (JIMT-1 cells) [nM]	IC50 (NIH:OVCAR-3 cells) [nM]	IC50 (hKIF18A (1-374)) [nM]	IC50 (HCC15 cells) [nM]	kon (on-rate from binding kinetics assay) [1] [M⁻¹ s⁻¹]	koff [1] [s⁻¹]	Ki [1] [nM]	disc. t1/2 (dissociation half-life ln(2)/koff) [1] [h]	TGI (OVCAR-3 tumor cells; 3 mg/kg QD PO) [%]	TGI (OVCAR-3 tumor cells; 10 mg/kg QD PO) [%]	TGI (OVCAR-3 tumor cells; 30 mg/kg QD PO) [%]	TGI (HCC15 tumor cells; 3 mg/kg QD PO) [%]	TGI (HCC15 tumor cells; 10 mg/kg QD PO) [%]	TGI (HCC15 tumor cells; 30 mg/kg QD PO) [%]
O=S(=O)(CCO)Nc1ccc(-n2cc(-c3cccc(N4CCC(F)(F)CC4)n3)nn2)c(N2CCC3(CC2)CC3)c1 [Compound 45, N-(4-(4-(6-(4,4-difluoropiperidin-1-yl)pyridin-2-yl)-1H-1,2,3-triazol-1-yl)-3-(6-azaspiro[2.5]octan-6-yl)phenyl)-2-hydroxyethane-1-sulfonamide]	6.9	5.5	6.6	3.9	30600	6.67e-06	0.21	28						
CS(=O)(=O)Nc1ccc(-c2ncc(-c3cccc(N4CCOCC4)n3)[nH]2)c(N2CCC3(CC2)CC3)c1 [Compound 10, N-(4-(5-(6-morpholinopyridin-2-yl)-1H-imidazol-2-yl)-3-(6-azaspiro[2.5]octan-6-yl)phenyl)methanesulfonamide]	130	210	9.2	120	4720	6.67e-05	14	2.9						
Cc1cc(-c2cn(-c3ccc(NS(=O)(=O)CCO)cc3N3CCC4(CC3)CC4)nn2)nc(N2CCC(F)(F)CC2)n1 [Compound 47, N-(4-(4-(2-(4,4-difluoropiperidin-1-yl)-6-methylpyrimidin-4-yl)-1H-1,2,3-triazol-1-yl)-3-(6-azaspiro[2.5]octan-6-yl)phenyl)-2-hydroxyethane-1-sulfonamide]	16	13	19	9.2	14400	2.78e-06	0.2	68	44 ± 11	119 ± 1	120 ± 1	64 ± 7	83 ± 4	87 ± 4
